{"source": "patent US7718677B2", "about": "“Methods and compositions for reduction of side effects of therapeutic treatments” (priority 2007, dated 2010)", "key": {"[1]": {"test_system": "corticostriatal slices from nonhuman primates", "conditions": "nicotine treatment", "text": "Brain slices at the level of the globus pallidus have generally been used as they incorporate many of the structures present in basal ganglia motor circuits. This includes glutamatergic inputs from the cortex that densely innervate striatal medium spiny GABAergic neurons and are a determinant of neuronal activity in striatal projection neurons. Synaptic plasticity, defined as long-lasting changes in the efficacy of synaptic transmission, has been identified in corticostriatal slices in vitro in the form of long-term potentiation (LTP), long-term depression (LTD) and depotentiation. In slices from unlesioned rats, high-frequency stimulation (HFS) of glutamatergic corticostriatal afferent fibers can induce both LTD and LTP in striatal medium spiny neurons, most likely due to a release of striatal glutamate which triggers dopamine release. Stimulation of both D1 and D2 receptors is required for the induction of LTD, whereas these two receptor subtypes play opposing roles in LTP."}, "levodopa-primed monkeys": {"test_system": "levodopa-primed monkeys", "experimental": "Levodopa administration: Monkeys were administered levodopa/carbidopa (5 mg/kg and 1.25 mg/kg, respectively), prepared by crushing a tablet of Sinemet® CR 100/25 (DuPont Pharma) and dissolving it in water. This dose of levodopa is within the range of that prescribed to Parkinson's disease patients. The monkeys were gavaged twice daily at 3.5-hour intervals for 8 weeks at a time using a 5-day-on/2-day-off schedule (Hsu et al., J Pharmacol Exp Ther. 2004; 311:770-777). During levodopa treatment, the monkeys were given fruits in the morning and food pellets 3.5 hours after the afternoon levodopa dose to optimize gastrointestinal absorption.\nDyskinesias were rated from videotapes, as described (Hsu et al., J Pharmacol Exp Ther. 2004; 311:770-777). This included a one hour baseline period (no drugs) from ˜8:00-9:00 AM, followed by two 3.5-hour treatment periods with levodopa starting at ˜9:00 AM and ˜12:30 PM. Dyskinesias were rated for 2-minute periods at 30-minute intervals by two independent raters blinded to treatment. They were rated on a scale of 0 (no dyskinesias) to 4; a score of 1 was indicative of subtle dyskinesias that were not sustained; 2, mild dyskinesias that were sustained; 3, moderate dyskinesias that impaired the ability to remain stationary; 4, severe dyskinesias that were generalized and incapacitating.\nData analyses: The levodopa treatment protocol used in the present study involved a 5-day-on/2-day-off schedule. Parkinsonian ratings were done on Monday and Friday of each week, with the score averaged over the two days. Dyskinesias ratings were determined by averaging the scores on Wednesday and Thursday of each week. All values are expressed as the mean±SE of the indicated number of animals. Results were compared using paired t-tests or analysis of variance (ANOVA) followed by Bonferroni multiple comparison post hoc test, using Prism® program (GraphPad Software, Inc, San Diego, Calif.). A level of 0.05 was considered significant.\nMaterials and methods were the same as in example 1.\nA crossover study, was then conducted, in which the animals originally receiving nicotine were given vehicle (n=3), while the vehicle-treated animals were now administered nicotine (n=4). Levodopa treatment was stopped. […] Monkeys that had previously received nicotine were placed on vehicle drinking water for the same time period. All monkeys were then treated with levodopa (5 mg/kg, twice daily 3.5 hours apart) for a subsequent 8-week period. Since both groups of monkeys had previously received levodopa, they were termed levodopa-primed."}, "[2]": {"test_system": "6-hydroxydopamine-lesioned rats", "conditions": "for L-dopa-induced AIMs, time course: L-dopa 8 then 12 mg/kg ip, ANOVA P<0.001; for L-dopa-induced AIMs, crossover to nicotine: rats initially without nicotine then given nicotine", "experimental": "Animals. Experiments were performed using male Sprague-Dawley rats (initial weight 250 g) purchased from Charles River Laboratories (Gilroy, Calif.). They were housed 2 per cage under a 12-12 h light-dark cycle in a temperature-controlled room with free access to food and water. Three to four days after arrival, the rats were unilaterally lesioned with 6-hydroxydopamine as previously described (Cenci et al., 1998 Eur J Neurosci 10:2694-2706.; Cenci et al., 2002 Nat Rev Neurosci 3:574-579). During the lesioning procedure the rats were maintained under isofluorane anesthesia (2%). They were placed in a Kopf stereotaxic instrument and burr holes drilled through the skull at the following coordinates relative to the Bregma and dural surface: (1) anteroposterior, −4.4; lateral, 1.2; ventral, 7.8; tooth bar at −2.4; (2) anteroposterior, −4.0; lateral, 0.75; ventral, 8.0; tooth bar at +3.4 (Cenci et al., 1998 Eur J Neurosci 10:2694-2706.; Cenci et al., 2002 Nat Rev Neurosci 3:574-579). 6-Hydroxydopamine was dissolved in 0.02% ascorbic acid/saline at a concentration of 3 ug/ul. Two μl was stereotaxically injected at each of these sites for a total of […] into the right ascending dopamine fiber bundle. Infusion of 6-hydroxydopamine into the target area was over a 2-min period, with the cannula maintained at the site of injection for a further 2 min. All procedures conformed to the NIH Guide for the Care and Use of Laboratory Animals and were approved by the Institutional Animal Care and Use Committee.\nBehavioral testing. Two and three weeks after lesioning, rats were tested for rotational behavior in an automated behavioral measurement apparatus (ROTOMAX, AccuScan Instruments Inc. Columbus, Ohio, USA). Each rat was placed in a cylindrical glass chamber for 30 min for acclimatization, after which amphetamine (4.0 mg/kg ip) was administered. The behavior was monitored for an additional 90 min, with rats making at least 100 ipsilateral turns used for further study.\nNicotine treatment. When the behavioral testing was completed, rats were treated with nicotine via the drinking water that yields an intermittent dosing regimen or via minipump that provides a constant level of nicotine. For administration via the drinking water, rats were first provided with a solution containing 1% saccharin (Sigma Chemical Co., St. Louis, Mo.) to mask the bitter taste of nicotine. After 2-3 days of acclimation, nicotine (free base, Sigma Chemical Co., St. Louis, Mo.) was added to the saccharin-containing drinking solution of the treated group (pH 7.0). Nicotine was initially given at a concentration of 25 μg/ml nicotine for 2 days.\nIn a separate series of experiments, rats were given nicotine continuously via Alzet minipumps (model 2004-200 μl), which secrete nicotine for 28 days. These were subcutaneously implanted according to the manufacturer's instruction. Pumps were filled with either sterilized water or nicotine base in water to deliver 2 mg/kg/d.\nL-dopa treatment. Three weeks after initiation of the 50 ug/ml nicotine dose, the rats received single daily intraperitoneal injections of 8 mg/kg L-dopa methyl ester plus 15 mg/kg benserazide (both from Sigma Chemical Co., St. Louis, Mo.) (Cenci et al., 1998 Eur J Neurosci 10:2694-2706.; Cenci et al., 2002 Nat Rev Neurosci 3:574-579). After 3 weeks of daily L-dopa dosing, abnormal involuntary movements (AIMs) were quantified. These included (1) axial dystonia, contralateral twisted posturing of the neck and upper body; (2) orolingual dyskinesia, stereotyped jaw movements and contralateral tongue protrusion; and (3) forelimb dyskinesia, repetitive rhythmic jerks or dystonic posturing of the contralateral forelimb and/or grabbing movements of the contralateral paw (Cenci et al., 1998 Eur J Neurosci 10:2694-2706.; Cenci et al., 2002 Nat Rev Neurosci 3:574-579; Carta et al., 2006 Neurochem 96:1718-1727)."}, "[3]": {"conditions": "nicotine in Gatorade up to 650 μg/ml", "quoted_text": "Nicotine treatment: All monkeys (n=7) were then given a drinking solution for 3 weeks consisting of commercially available orange Gatorade® to mask nicotine's bitter taste (FIG. 1). The control group (n=4) was continued on Gatorade® only, while nicotine (free base) was added to the Gatorade of the treated group (n=3). Nicotine dosing was started at 50 μg/ml for 1 week, 150 μg/ml for 1 week, with the concentration increased by 150 μg increments/week over the next few weeks, up to 650 μg/ml (FIG. 1)."}}, "note": "Like-named read-outs stand apart in the source and are kept apart here."}
{"smiles": "CN1CCCC1c1cccnc1", "note": "(stereo not drawn) [Nicotine, S-3-(1-methyl-2-pyrrolidinyl)pyridine]", "values": [{"measurement": "long-term depression (LTD) lost as a result of nigrostriatal damage", "setting": "[1]", "value": "restores"}, {"measurement": "total dyskinetic scores after removal of nicotine", "setting": "levodopa-primed monkeys; animals removed from nicotine treatment, week 4, 6 and 8 of levodopa treatment", "value": "significantly enhanced"}, {"measurement": "reduction of dyskinesias", "setting": "levodopa-primed monkeys; levodopa-primed monkeys", "value": "~35", "unit": "%"}, {"measurement": "duration of dyskinesias", "setting": "levodopa-primed monkeys; levodopa-primed monkeys switched to nicotine", "value": "decrease"}, {"measurement": "peak dyskinesias", "setting": "levodopa-primed monkeys; levodopa-primed monkeys switched to nicotine, last 4 weeks of levodopa treatment", "value": "significantly reduced"}, {"measurement": "total dyskinesias", "setting": "levodopa-primed monkeys; levodopa-primed monkeys switched to nicotine, vs same animal before crossover, all time points, paired t-tests", "value": "significantly reduced"}, {"measurement": "individual AIM components (total, axial, oral, forelimb)", "setting": "[2]; constant nicotine 2 mg/kg/d via minipump vs no nicotine, FIG. 15", "value": "reduced"}, {"measurement": "L-dopa-induced AIMs, time course", "setting": "[2]; continuous nicotine 2 mg/kg/d via minipump, FIG. 14", "value": "significant effect"}, {"measurement": "AIMs development after removal of nicotine", "setting": "[2]; drinking water, rats initially on nicotine then given saccharin, FIG. 13", "value": "increase"}, {"measurement": "L-dopa-induced AIMs, crossover to nicotine", "setting": "[2]; drinking water, FIG. 13", "value": "reduced"}, {"measurement": "L-dopa-induced AIMs, time course", "setting": "[2]; intermittent nicotine 50 μg/ml in drinking water, FIG. 11", "value": "significant effect"}, {"measurement": "individual AIM components (total, axial, oral, forelimb)", "setting": "[2]; intermittent nicotine in drinking solution vs saccharin only, FIG. 12", "value": "reduced"}, {"measurement": "AIMs development after removal of nicotine", "setting": "[2]; minipump, rats initially on nicotine then given minipumps containing no nicotine, FIG. 16", "value": "increase"}, {"measurement": "L-dopa-induced AIMs, crossover to nicotine", "setting": "[2]; minipump, FIG. 16", "value": "reduced"}, {"measurement": "effects on body weight or fluid intake", "setting": "[3]", "value": "no significant effects"}]}
